Measured values published in a melting point compilation (Tetko et al.).

SMILES | melting point
CCC(N)C(=O)O (configuration not stated) | 304 °C
CCCCCCCC(N)P(=O)(O)O (configuration not stated) | 269 to 270 °C
c1ccc2cc3cc4cc5ccccc5cc4cc3cc2c1 | 300 °C
O=[N+]([O-])c1c(Br)sc(Br)c1[N+](=O)[O-] | 136 °C
CCN(CC)c1c([N+](=O)[O-])cc(C(F)(F)F)c(N)c1[N+](=O)[O-] | 98.5 °C
CCCCCc1ccc(S(=O)(=O)Cl)cc1 | 42 to 44 °C
O=C(O)Cn1c(C(F)(F)F)nc2ccccc21 | 248 °C
BrCC(CBr)(CBr)CBr | 163 °C
C=C(C)C1Cc2c(ccc3c2OC2COc4cc(OC)c(OC)cc4C2C3=O)O1 (configuration not stated) | 176 °C
CN(N)c1ccc(C(F)(F)F)cn1 | 52 to 55 °C
CC1(c2ccc(Oc3ccccc3)cc2)OC(=O)N(Nc2ccccc2)C1=O (configuration not stated) | 142 °C
O=C(O)CCc1ccco1 | 58 °C
O=C1OC(=O)[C@H]2[C@@H]1[C@@H]1C3C=CC([C@H]21)[C@H]1C(=O)OC(=O)[C@@H]31 | 355 to 357 °C
CCCC(=O)c1ccc(NC(C)=O)cc1O | 85 to 87 °C
C=CC1C2=CCOC(=O)C2=COC1OC1OC(CO)C(O)C(O)C1O (configuration not stated) | 191 °C
O=C1CC2C(CC(OC(=O)c3ccc(-c4ccccc4)cc3)C2CO)O1 (single isomer, unassigned; (-)) | 128 to 134 °C
CC(C)(C)c1cc(C(=O)NN)n(Cc2ccc(F)cc2)n1 | 183 to 185 °C
O=C=Nc1ccc(-c2ccco2)cc1 | 66 °C
CCCCCC(=O)Cl | -87 °C
CN1CCOc2cc(S(=O)(=O)Cl)ccc21 | 66 to 68 °C
O=c1c(=O)c2ccccc12 | 131 °C

SMILES | melting point
CCC1(c2cccc(O)c2)CCCCN(C)C1=O (configuration not stated) | 172 to 176 °C
COC(=O)c1cc(O)ccc1O | 87 °C
Nc1n[nH]c(N)c1Cc1ccc(F)cc1 | 159 to 161 °C
CC(C)CC1c2ccccc2-c2ccccc21 | 45 °C
COc1cccc(C2C(C(=O)OC(C)C)=C(C)NC(C)=C2C(=O)OC(C)C)c1OC | 141 °C
NC(=S)Cc1ccc(-c2csnn2)cc1 | 169 to 171 °C
Fc1c(F)c(F)c(CBr)c(F)c1F | 19 °C
Cc1ccc(C(N)CC(=O)O)cc1 (configuration not stated) | 223 to 227 °C
O=C(O)C(O)c1ccc(Cl)cc1 (configuration not stated) | 120 °C
COc1cc(-c2n[nH]c(=S)n2/N=C/c2cc(Br)ccc2O)cc(OC)c1OC | 230 to 231 °C
CCC(C)C(C)(COC(N)=O)COC(N)=O (configuration not stated) | 77 °C
O=Cc1ccccc1OC1CCOCC1 | 67 to 70 °C
O=C(O)c1ccccc1OC(F)(F)F | 79 °C
COc1ccc(NN=C2C(=O)NC(=O)NC2=O)cc1 | 264 °C
Cc1nn(C(C)(C)C)c(C)c1C=O | 56 to 61 °C
O=C(c1ccc(Br)cc1)c1noc(-c2ccc(Br)cc2)c1S(=O)(=O)c1ccccc1 | 155 °C
ClC1=C(Cl)C(Cl)(Cl)C(Cl)=C1Cl | -9 °C
O=C(O)Cc1cccs1 | 63 °C
COc1cc2c(cc1OC)C(C)=NCC2 | 103 to 106 °C
CC(C)(C)OC(=O)NCCC(=O)O | 75 °C
CCOC(=O)C1=C(C)NC(=O)NC1C (configuration not stated) | 189 to 190 °C

SMILES | melting point
Cc1onc(-c2c(Cl)cccc2Cl)c1CC#N | 75 to 78 °C
CC1(C)CC(C(=O)Oc2ccc([N+](=O)[O-])cc2)C(C)(C)N1O (configuration not stated) | 77 to 80 °C
O=C(Nc1c(Cl)cc(Cl)cc1Cl)C(F)(F)C(F)(F)C(F)(F)C(F)(F)C(F)(F)C(F)(F)C(F)(F)C(F)(F)F | 115 °C
CC(=O)N1CCN(CCN2C3=C(C(=O)CC(C)(C)C3)C(c3ccc(Cl)cc3)C3=C2CC(C)(C)CC3=O)CC1 | 213 °C
FC(F)(F)C(F)(F)Cl | -99.4 °C
CC(CCc1oc2ccc(Br)cc2c1-c1ccc(C)o1)=NO | 132 °C
S=C=Nc1cc(Br)ccc1Br | 49 to 51 °C
COc1ccc(C=Cc2cc(OC)cc(=O)o2)cc1 | 156 °C
COc1ccc(-c2ocnc2C(=O)Cl)cc1 | 97 to 99 °C
OCC1CCCN2CCCCC12 (configuration not stated) | 70 °C
C#CCN1C(=O)CN=C(c2ccccc2)c2cc(Cl)ccc21 | 141 °C
Oc1cccc(CN2CCCCC2)c1 | 140 °C
CCOC(=O)CC(=O)C(F)(F)F | -39 °C
CC(=O)c1cc(O)ccc1O | 206 °C
Cc1ccc(C)c2ccccc12 | 7.6 °C
NC(=O)Cc1nc(-c2ccc([N+](=O)[O-])cc2)cs1 | 202 to 203 °C
COc1ccc2c(OC)cccc2c1 | 58.5 °C
COC(=O)C(C#N)=Cc1cc(Br)c(O)c(OC)c1 | 200 °C
Nc1ccc(C=Cc2cccc(N)c2)cc1 | 109 °C

The remaining lines, values ahead:

melting point | SMILES
293 to 295 °C | N#Cc1c(C(F)(F)F)cc(-c2cccs2)[nH]c1=O
52 °C | Cn1c2c(c3ccccc31)CCCC2
44 °C | CC(C(=O)Nc1ccc(F)c(F)c1F)(C(F)(F)F)C(F)(F)F
15.8 °C | COc1ccc(C(C)=O)c(OC)c1OC
107 to 108 °C | CN(N)c1cnc2ccccc2n1
141 to 142 °C | CC(=O)Nc1cc(N)ccc1C
68 to 69 °C | CNCc1ccc(-c2ccsc2)cc1
217 °C | O=C(O)C1c2ccccc2Oc2ccccc21
166 °C | O=C1C2(CCCCC2)C(=O)C12CCCCC2
70.8 °C | CC1=C[C@H](O)[C@H]2C[C@@H]1C2(C)C
34 °C | CCCCCc1ccc(-c2ccc(C#N)cc2)cc1
223 to 225 °C | NC(CCCCCC(=O)O)C(=O)O (racemic)
19 °C | CCCCCCCCCCCCCCCBr
99 to 101 °C | COc1ccc(CC(=O)O)c(OC)c1OC
106 °C | Oc1ccc(O)c(Cc2ccccc2)c1
-16.5 °C | CC/C=C\C/C=C\C/C=C\CCCCCCCC(=O)O

melting point | SMILES
181 °C | O=Cc1c(F)cc(O)cc1F
240 to 255 °C | Oc1cc(O)nc(S)n1
-13 °C | CC(=O)CCc1ccccc1
124 to 131 °C | CSCN1C(=O)NC(c2ccccc2)(c2ccccc2)C1=O
194 °C | O=C1CSC(=S)N1c1ccccc1
105 to 108 °C | CCOC(=O)c1ccc2c(c1)nnn2C
111 to 115 °C | C1COCCOCCNCCOCCOCCN1
223 °C | O=C(O)C(=Cc1ccccc1)C(=Cc1ccccc1)C(=O)O
90 to 91 °C | O=C(Cl)c1cccnc1Oc1ccccc1
211 °C | COc1ccc(C2C(C#N)=C(N)Oc3c2c(C(F)(F)F)nn3-c2ccccc2)cc1 (configuration not stated)
35 to 37 °C | Cc1cc(N)ccc1F
44 °C | COCCc1ccc(O)cc1
150 °C | CC(NC(CCc1ccccc1)C(=O)O)C(=O)N1CCCC1C(=O)O (configuration not stated)
69 °C | CC[C@H](C)[C@H](NC(=O)OC(C)(C)C)C(=O)O
193 to 196 °C | COc1ccc(C(=O)O)c(Cl)c1OC
